PMC10899662, “TopBP1 utilises a bipartite GINS binding mode to support genome replication” (Nature Communications, 2024)

Key:
[1] = tested on: TopBP1-proximal proteins (Psf3, Psf2); assay: APEX2 proximity biotinylation, streptavidin pulldown and mass spectrometry; type: cell-based, human; details: three proximity biotinylation experiments; + H2O2 vs - H2O2; four biological replicates
Experimental: Proximity labelling was performed in isogenic stable 293 Flip-In (Thermo Fisher; R75007) cells stably expressing TopBP1 N-terminal tagged with APEX2 or in 293T cells transiently expressing either N-terminal or C-terminally APEX2-tagged TopBP1. 24 h before transfection, 0.8 × 10^6 cells were seeded onto a 6-cm plate. For each condition, four dishes were separately transfected (biological replicates). One day after transfection, cells were incubated for 30 min with 500 µM biotin phenol at 37 °C, before incubation for 1 min at RT with or without (controls) 1 mM H2O2. The medium was discarded, and cells were washed three times with quenching buffer (10 mM sodium azide, 10 mM sodium ascorbate and 5 mM Trolox in Dulbecco’s PBS (Life Technologies 14190169). Cells were rinsed off the dishes with DPBS, transferred into reaction tubes before washing again with DPBS. Cells were lysed at 95 °C for 10 min in TSD buffer (50 mM Tris pH 7.5, 5 mM DTT and 1% SDS). Samples were diluted ten times with TNN buffer (20 mM Tris pH 7.9, 200 mM NaCl and 0.5% NP-40 alternative) and benzonase (75 U per sample) (Sigma E1014). Samples were incubated for 15 min at 4 °C and centrifuged at 21,000 × g for 2 min at 4 °C. Supernatants were incubated over night with 15 µl streptavidin sepharose beads (Sigma GE17-5113-01) at 4 °C. […]

Sld5 = assay: Myc immunoprecipitation from transfected 293T cells, Sld5 co-IP; type: binding; details: transiently transfected 293T cell lysates, anti-Myc
Experimental: Transient transfections of 6xMyc-Tev2-TopBP1 into 293T cells (ATCC CRL-11268) were carried out using PEI (polyethyleneimine) according to a protocol kindly shared by David Cortez’ lab. 4 µg plasmid DNA in 100 µl DMEM (Thermofisher, 41965039) without penicillin-streptomycin were combined with 2.4 µl Polyethylenimin (Sigma, 408727; 10 mg/ml) and incubated for 20 min before addition to 4 × 10^6 cells on a 10-cm dish. Transfected cells were used 72 h post transfection. 72 h post transfection, 293T cells were lysed by douncing in ten times cell pellet volume of lysis buffer (20 mM HEPES pH 8.0, 150 mM NaCl, 0.1% (v/v) Tween-20, 0.5 mM TCEP, 2% (v/v) glycerol, protease inhibitor cocktail (Roche, Complete protease inhibitor cocktail, 05056489001)), and centrifuged at 20,000 × g for 15 min at 4 °C. The soluble supernatant was added to magnetic anti-Myc beads (5 µl slurry per sample; Thermofischer, 88842) and incubated for 2 h at 4 °C rotating. Cells equivalent to 50% of a 15 cm dish were used per sample. Beads were washed three times in lysis buffer with 5 min incubation each, and finally boiled in 50 µl Laemmli loading buffer (6.5% glycerol, 715 mM β-mercaptoethanol, 3% SDS, 62.5 mM Tris-HCl pH 7.9, 0.005% bromphenol blue).
Non-APEX2-bio=nylated samples (-H2O2) were used as controls. […] Immunoprecipitated TopBP1 was detected using Ponceau (Ponc.) staining. […]

| Molecule | enrichment of Psf3 upon streptavidin pulldown [1] | Sld5 co-immunoprecipitation (Sld5) |
| --- | --- | --- |
| APEX2-tagged TopBP1: N- or C-terminally APEX2-tagged TopBP1 | specific enrichment of Psf3 | – |
| TopBP1-BRCT0-5: 6Myc-TEV2-tagged TopBP1-BRCT0-5 expressed in 293T cells (protein, left off: Strep, C-terminal, kept, 6Myc-TEV2-tagged TopBP1-BRCT0-5 expressed in 293T cells) MSRNDKEPFFVKFLKSSDNSKCFFKALESIKEFQSEEYLQIITEEEALKIKENDRSLYICDPFSGVVFDHLKKLGCRIVGPQVVIFCMHHQRCVPRAEHPVYNMVMSDVTISCTSLEKEKREEVHKYVQMMGGRVYRDLNVSVTHLIAGEVGSKKYLVAANLKKPILLPSWIKTLWEKSQEKKITRYTDINMEDFKCPIFLGCIICVTGLCGLDRKEVQQLTVKHGGQYMGQLKMNECTHLIVQEPKGQKYECAKRWNVHCVTTQWFFDSIEKGFCQDESIYKTEPRPEAKTMPNSSTPTSQINTIDSRTLSDVSNISNINASCVSESICNSLNSKLEPTLENLENLDVSAFQAPEDLLDGCRIYLCGFSGRKLDKLRRLINSGGGVRFNQLNEDVTHVIVGDYDDELKQFWNKSAHRPHVVGAKWLLECFSKGYMLSEEPYIHANYQPVEIPVSHKPESKAALLKKKNSSFSKKDFAPSEKHEQADEDLLSQYENGSSTVVEAKTSEARPFNDSTHAEPLNDSTHISLQEENQSSVSHCVPDVSTITEEGLFSQKSFLVLGFSNENESNIANIIKENAGKIMSLLSRTVADYAVVPLLGCEVEATVGEVVTNTWLVTCIDYQTLFDPKSNPLFTPVPVMTGMTPLEDCVISFSQCAGAEKESLTFLANLLGASVQEYFVRKSNAKKGMFASTHLILKERGGSKYEAAKKWNLPAVTIAWLLETARTGKRADESHFLIENSTKEERSLETEITNGINLNSDTAEHP | – | weak but specific signal |
